# “And” between values parts separate entries of the source, which are not always exact repeats. Identical values can stand only once. Toxic doses and inconclusive results are not listed. Residues, ends and D or L forms follow the SMILES beside them. *: point of attachment. Cbz = O=C(OCc1ccccc1)*; Bn = c1ccc(C*)cc1
# Test system: BDF1 mice, P388 leukemia ip, median survival T/C
# Assay: NCI In Vivo Anticancer Drug Screen. Data for tumor model P388 Leukemia (intraperitoneal) in B6D2F1 (BDF1) mice
# Conditions: endpoint: median survival time, higher = longer survival
# Outline: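 Mice carrying the transplantable tumour receive compound or vehicle. Survival is followed in each arm, and the treated measure is divided by the vehicle measure.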
# [1] = dose: 200.0 mg/kg/injection, schedule: Q01DX001 (ip), vehicle: saline with Tween-80
# [2] = dose: 50.0 mg/kg/injection, schedule: Q01DX009 (ip), vehicle: saline with Tween-80
# [3] = dose: 100.0 mg/kg/injection, schedule: Q04DX003 (ip), vehicle: saline with Tween-80
# [4] = dose: 200.0 mg/kg/injection, schedule: Q04DX003 (ip), vehicle: saline with Tween-80
# [5] = dose: 400.0 mg/kg/injection, schedule: Q04DX003 (ip), vehicle: saline with Tween-80
# [6] = dose: 100.0 mg/kg/injection, schedule: Q04DX003 (ip), vehicle: Klucel (hydroxypropylcellulose) (HPC)
# [7] = dose: 200.0 mg/kg/injection, schedule: Q04DX003 (ip), vehicle: Klucel (hydroxypropylcellulose) (HPC)
# [8] = dose: 400.0 mg/kg/injection, schedule: Q04DX003 (ip), vehicle: Klucel (hydroxypropylcellulose) (HPC)
# [9] = dose: 6.25 mg/kg/injection, schedule: Q01DX009 (ip), vehicle: Klucel (hydroxypropylcellulose) (HPC)
smiles,measurement,setting,value
CC(C)(C1=CC=CS1(=O)=O)C1=CC=C(C(C)(C)C2=CC=CS2(=O)=O)S1(=O)=O,T/C,"dose: 100.0 mg/kg/injection, schedule: Q01DX001 (ip), vehicle: saline with Tween-80",102 % of control
same,T/C,[1],94 % of control
same,T/C,"dose: 400.0 mg/kg/injection, schedule: Q01DX001 (ip), vehicle: saline with Tween-80",106 % of control
CCOC(=O)c1c(C)cc(C)nc1[S][Sn]([Br])([Br])[S]c1nc(C)cc(C)c1C(=O)OCC,T/C,[2],97 % of control
same,T/C,"dose: 100.0 mg/kg/injection, schedule: Q01DX009 (ip), vehicle: saline with Tween-80",103 % of control
same,T/C,"dose: 200.0 mg/kg/injection, schedule: Q01DX009 (ip), vehicle: saline with Tween-80",106 % of control
O=C1NC2NC(=O)NC2N1 (centres undefined),T/C,[3],100 % of control
same,T/C,[4],100 % of control
same,T/C,[5],104 % of control
CCSc1nc(C(OC)OC)c(Cc2ccccc2)c(=O)[nH]1,T/C,[6],90 % of control
same,T/C,[7],90 % of control
same,T/C,[8],90 % of control
CCCCCCCCCCCCCCCC(=O)OCC1OC(n2ccc(N)nc2=O)C(O)C1O (centres undefined),T/C,"dose: 0.38 mg/kg/injection, schedule: Q04DX003 (ip), vehicle: saline with Tween-80",111 % of control
same,T/C,"dose: 0.88 mg/kg/injection, schedule: Q04DX003 (ip), vehicle: saline with Tween-80",109 % of control
same,T/C,"dose: 1.5 mg/kg/injection, schedule: Q04DX003 (ip), vehicle: saline with Tween-80",152 % of control
same,T/C,"dose: 2.0 mg/kg/injection, schedule: Q04DX003 (ip), vehicle: saline with Tween-80",154 % of control
same,T/C,"dose: 3.0 mg/kg/injection, schedule: Q04DX003 (ip), vehicle: saline with Tween-80",181 % of control and 189 % of control
same,T/C,"dose: 3.13 mg/kg/injection, schedule: Q01DX009 (ip), vehicle: saline with Tween-80",272 % of control and 215 % of control
same,T/C,"dose: 6.25 mg/kg/injection, schedule: Q01DX009 (ip), vehicle: saline with Tween-80",250 % of control and 322 % of control
same,T/C,"dose: 7.5 mg/kg/injection, schedule: Q01DX009 (ip), vehicle: saline with Tween-80",186 % of control
same,T/C,"dose: 12.5 mg/kg/injection, schedule: Q01DX009 (ip), vehicle: saline with Tween-80",300 % of control and 333 % of control
same,T/C,"dose: 15.0 mg/kg/injection, schedule: Q01DX009 (ip), vehicle: saline with Tween-80",190 % of control
same,T/C,"dose: 22.0 mg/kg/injection, schedule: Q01DX009 (ip), vehicle: saline with Tween-80",272 % of control
same,T/C,"dose: 25.0 mg/kg/injection, schedule: Q01DX009 (ip), vehicle: saline with Tween-80",266 % of control and 300 % of control
same,T/C,"dose: 25.0 mg/kg/injection, schedule: Q04DX003 (ip), vehicle: saline with Tween-80",109 % of control
same,T/C,"dose: 30.0 mg/kg/injection, schedule: Q01DX009 (ip), vehicle: saline with Tween-80",104 % of control
same,T/C,"dose: 30.25 mg/kg/injection, schedule: Q01DX001 (ip), vehicle: Klucel (hydroxypropylcellulose) (HPC)",214 % of control
same,T/C,"dose: 31.75 mg/kg/injection, schedule: Q04DX002 (ip), vehicle: Klucel (hydroxypropylcellulose) (HPC)",265 % of control and 204 % of control
same,T/C,"dose: 40.0 mg/kg/injection, schedule: Q01DX001 (ip), vehicle: saline with Tween-80",171 % of control
same,T/C,"dose: 44.0 mg/kg/injection, schedule: Q04DX003 (ip), vehicle: saline sonified",275 % of control
same,T/C,[2],90 % of control
same,T/C,"dose: 50.0 mg/kg/injection, schedule: Q04DX003 (ip), vehicle: saline with Tween-80",195 % of control
same,T/C,"dose: 60.0 mg/kg/injection, schedule: Q01DX001 (ip), vehicle: saline with Tween-80",188 % of control
same,T/C,"dose: 62.5 mg/kg/injection, schedule: Q04DX002 (ip), vehicle: Klucel (hydroxypropylcellulose) (HPC)",241 % of control and 265 % of control
same,T/C,"dose: 66.0 mg/kg/injection, schedule: Q04DX003 (ip), vehicle: saline sonified",300 % of control
same,T/C,"dose: 90.0 mg/kg/injection, schedule: Q01DX001 (ip), vehicle: saline with Tween-80",197 % of control
same,T/C,"dose: 90.0 mg/kg/injection, schedule: Q04DX003 (ip), vehicle: saline with Tween-80",231 % of control (2×) and 217 % of control
same,T/C,"dose: 100.0 mg/kg/injection, schedule: Q01DX001 (ip), vehicle: saline",206 % of control
same,T/C,"dose: 100.0 mg/kg/injection, schedule: Q04DX003 (ip), vehicle: saline sonified",300 % of control
same,T/C,[3],300 % of control and 168 % of control
same,T/C,"dose: 125.0 mg/kg/injection, schedule: Q01DX001 (ip), vehicle: saline with Tween-80",392 % of control
same,T/C,"dose: 125.0 mg/kg/injection, schedule: Q04DX002 (ip), vehicle: Klucel (hydroxypropylcellulose) (HPC)",265 % of control
same,T/C,"dose: 150.0 mg/kg/injection, schedule: Q01DX001 (ip), vehicle: saline",318 % of control
same,T/C,"dose: 150.0 mg/kg/injection, schedule: Q04DX003 (ip), vehicle: saline sonified",120 % of control
same,T/C,[1],239 % of control and 196 % of control and 214 % of control
same,T/C,[4],95 % of control and 120 % of control
O=C(NC(CSCc1ccccc1)C(=O)NC(Cc1ccc(O)cc1)C(=O)O)OCc1ccccc1 (centres undefined) (Cbz-Cys(Bn)-Tyr-OH; configuration not given here),T/C,"dose: 100.0 mg/kg/injection, schedule: Q01DX009 (ip), vehicle: gum acacia",95 % of control
same,T/C,"dose: 100.0 mg/kg/injection, schedule: Q04DX003 (ip), vehicle: gum acacia",88 % of control
same,T/C,"dose: 200.0 mg/kg/injection, schedule: Q01DX009 (ip), vehicle: gum acacia",95 % of control
same,T/C,"dose: 200.0 mg/kg/injection, schedule: Q04DX003 (ip), vehicle: gum acacia",107 % of control
same,T/C,"dose: 400.0 mg/kg/injection, schedule: Q01DX009 (ip), vehicle: gum acacia",100 % of control
same,T/C,"dose: 400.0 mg/kg/injection, schedule: Q04DX003 (ip), vehicle: gum acacia",92 % of control
CC1CC=CCC1COC(=O)C(=O)OCC1CC=CCC1C (centres undefined),T/C,[3],105 % of control
same,T/C,[4],105 % of control
same,T/C,[5],110 % of control
Cc1ccnc(NS(=O)(=O)c2ccc(N=Nc3nc4[nH]c(N)nc(=S)c4[nH]3)cc2)n1,T/C,"dose: 1.56 mg/kg/injection, schedule: Q01DX009 (ip), vehicle: Klucel (hydroxypropylcellulose) (HPC)",151 % of control
same,T/C,"dose: 3.12 mg/kg/injection, schedule: Q01DX009 (ip), vehicle: Klucel (hydroxypropylcellulose) (HPC)",112 % of control
same,T/C,[9],108 % of control
Cn1nnnc1N/N=C/c1ccccc1,T/C,[3],110 % of control
same,T/C,[4],115 % of control
same,T/C,[5],100 % of control
CC(=O)NC1=C(N2CC2)C(=O)C(NC(C)=O)=C(N2CC2)C1=O,T/C,"dose: 0.12 mg/kg/injection, schedule: Q01DX009 (ip), vehicle: saline",155 % of control
same,T/C,"dose: 0.25 mg/kg/injection, schedule: Q01DX009 (ip), vehicle: saline",166 % of control and 195 % of control
same,T/C,"dose: 0.5 mg/kg/injection, schedule: Q01DX009 (ip), vehicle: saline",270 % of control and 214 % of control
same,T/C,"dose: 1.0 mg/kg/injection, schedule: Q01DX009 (ip), vehicle: saline",285 % of control and 190 % of control
same,T/C,"dose: 2.0 mg/kg/injection, schedule: Q01DX009 (ip), vehicle: saline",109 % of control
C[C@]12CC[C@@H]3c4ccc(O)cc4CC[C@H]3[C@@H]1CC[C@@H]2O,T/C,"dose: 100.0 mg/kg/injection, schedule: Q01DX009 (ip), vehicle: Klucel (hydroxypropylcellulose) (HPC)",90 % of control
same,T/C,[6],100 % of control
same,T/C,[7],100 % of control
same,T/C,"dose: 400.0 mg/kg/injection, schedule: Q01DX009 (ip), vehicle: Klucel (hydroxypropylcellulose) (HPC)",95 % of control
same,T/C,[8],115 % of control
NOc1ccc([N+](=O)[O-])cc1[N+](=O)[O-],T/C,[9],115 % of control
same,T/C,"dose: 12.5 mg/kg/injection, schedule: Q01DX009 (ip), vehicle: Klucel (hydroxypropylcellulose) (HPC)",95 % of control
same,T/C,"dose: 16.5 mg/kg/injection, schedule: Q01DX009 (ip), vehicle: Klucel (hydroxypropylcellulose) (HPC)",113 % of control
same,T/C,"dose: 25.0 mg/kg/injection, schedule: Q01DX009 (ip), vehicle: Klucel (hydroxypropylcellulose) (HPC)",103 % of control and 113 % of control
CC(C)(C)C1=CC(C(C)(C)C)CCC1=O (centres undefined),T/C,"dose: 50.0 mg/kg/injection, schedule: Q01DX009 (ip), vehicle: saline",86 % of control
same,T/C,"dose: 75.0 mg/kg/injection, schedule: Q04DX003 (ip), vehicle: saline",110 % of control
same,T/C,"dose: 100.0 mg/kg/injection, schedule: Q01DX009 (ip), vehicle: saline",109 % of control
same,T/C,"dose: 150.0 mg/kg/injection, schedule: Q04DX003 (ip), vehicle: saline",110 % of control
same,T/C,"dose: 200.0 mg/kg/injection, schedule: Q01DX009 (ip), vehicle: saline",118 % of control
same,T/C,"dose: 300.0 mg/kg/injection, schedule: Q04DX003 (ip), vehicle: saline",120 % of control
CCOC(=O)CNC(=O)C(CSSCC(NC(=O)OCc1ccccc1)C(=O)NCC(=O)OCC)NC(=O)OCc1ccccc1 (centres undefined),T/C,[6],118 % of control
same,T/C,[7],86 % of control
same,T/C,[8],109 % of control

# Source: PubChem BioAssay AID328 (DTP/NCI, 2004)
